According to patent US20160193240A1, “Ulmoside-A: Useful For Prevention Or Cure Of Metabolic Diseases” (COUNCIL OF SCIENTIFIC & INDUSTRIAL RESEARCH, priority 2013, published 2016):
Marks after values point to notes of the source that are not given here.

Experiments:
AdipoR1 = target: T1, AdipoR1 (Homo sapiens, UniProt Q96A54); experiment: Radio-ligand saturation binding assay with 125I-ULMA, CHO cells transfected with AdipoR1
T1 construct: expressed in transfected cells; host or cells: Chinese Hamster Ovary cells (ECACC 85050302), transient transfection with Lipofectamine LTX
T1 sequence (Q96A54 1-375): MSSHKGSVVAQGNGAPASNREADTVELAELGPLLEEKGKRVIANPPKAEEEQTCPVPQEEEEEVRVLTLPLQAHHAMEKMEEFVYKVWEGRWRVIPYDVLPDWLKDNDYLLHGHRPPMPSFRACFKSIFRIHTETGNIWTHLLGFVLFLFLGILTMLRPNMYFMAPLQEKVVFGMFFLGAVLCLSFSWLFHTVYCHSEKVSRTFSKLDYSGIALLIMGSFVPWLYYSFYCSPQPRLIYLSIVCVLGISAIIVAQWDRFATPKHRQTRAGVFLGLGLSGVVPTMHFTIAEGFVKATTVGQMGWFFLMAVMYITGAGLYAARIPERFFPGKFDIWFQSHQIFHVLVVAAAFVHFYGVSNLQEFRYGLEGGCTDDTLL
Description: D. CHO cells transfected with empty vector or AdipoR1 or R2 expression vectors were incubated with various concentrations of ^125I-ULMA for 2 h at 4° C. Following washes, cells were lysed and count per minute was analyzed in a gamma counter. 200 fold molar excess of unlabeled ULMA was used for each concentration of radiolabeled ULMA for determining nonspecific activity. Count per minutes were normalized with total cellular protein content followed by further normalization with non-specific activity and plotted. Data is mean±SEM from three experiments performed in triplicates.
Further validation of AdipoR-ULMA interaction and its quantitation was done using a radio-ligand saturation binding assay using ^125I-ULMA. ULMA was first radiolabeled using chloramines-T method. 10 μl of ^125I (20 MBq; BARC, Mumbai, India) was added to 100 μg GTDF in 5% acetic acid/methanol, then chloramine-T (Sigma, 4 μg in MilliQ H2O) was added, and the mixture was allowed to react at room temperature (24° C.) for 5 min. […] was used for protein estimation using standard Bradford assay and rest of the lysate was used for measuring radioactivity in a gamma-counter (Cole Palmer). The count per minute was normalized with protein concentration and was further normalized with non specific binding, which was determined for every concentration of ^125I-ULMA, using 200 fold molar excess of unlabeled ULMA.

Human SVF = experiment: Brown adipose marker protein level in human stromal vascular fractions; assay type: cell-based; settings: differentiated in presence of ULMA, 21 d
Description: C. Cells from identical set of experiments as described in FIGS. 5A and 5B or human SVFs prepared by collagenase digestions were analyzed by western blot analysis for determination of UCP-1, UCP-2 and PGC-1α protein level. Beta-actin was used as a loading control. Data is representative of three independent experiments.
Mouse stromal vascular fractions (SVF) from epididymal fat pad were prepared using standard collagenase digestion method. Human SVF was prepared from human lipoaspirates (subcutaneous) collected from an obese individual undergoing liposuction following approval of Institutional Ethical Committee. To isolate SVFs, epidymal fat pads tissue or lipoaspirates were washed 6× in PBS and then were dispensed in tissue culture flasks. 0.2% sterile collagenase (Sigma) solution containing 1× antibiotic-antimycotic (Invitrogen) was then added to the adipose and the flasks were shaken vigorously for 10 seconds. The flasks were then incubated at 37° C. on a shaker for 2 hours with manual shaking of the flasks for 5-10 seconds every 15 min. After completion of digestion, FBS was added to the final concentration of 10% to the flasks, mixed and the collagenase digested tissue were then dispensed in 50 ml conical tubes and were centrifuged at 400 g for 10 min at room temp. […]

wistar rats = experiment: Dexamethasone-mediated reduction in serum osteocalcin in rats (ELISA); assay type: in vivo, rat; settings: Dex + ULMA, 14 days
Description: Food intake was measured daily and the rats were weighed each week. The rats were fasted overnight (O/N) on day 14th and on day 15th oral glucose tolerance test was performed. Following oral glucose tolerance test (OGTT), rats were kept with food and water ad libitum for one day. On day 16th, rats were fasted again O/N and then euthanized. At autopsy, from 5 animals/group, tissues were collected and snap frozen in liquid nitrogen. Blood was collected from cardiac punctures. Plasma was separated from whole blood by centrifugation at 3000 rpm for 20 min immediately after collection of blood and stored at −80° C. until further analysis. […] (quadriceps) skeletal muscles were processed for RNA and protein extraction, followed by quantitative real-time PCR (QRT-PCR) analysis. Two animals from each group were used for photography post autopsy.

`O=C1c2c(cc(O)c([C@@H]3O[C@H](CO)[C@@H](O)[C@H](O)[C@H]3O)c2O)O[C@@H](c2ccc(O)c(O)c2)[C@@H]1O` [ULMA, (2S,3S)-(+)-3′,4′,5,7-tetrahydroxydihydroflavonol-6-C-β-D-glucopyranoside] was tested, and the “maximum binding (BMAX)” value (AdipoR1) was 1410 fmol/mg of protein, the Kd (AdipoR1; 2 hours, ice cold, read-out: dissociation constant (Kd)) was 4.9 nM and the PGC-1α protein level (Human SVF) was “elevated”. The UCPs protein level (Human SVF) was “elevated” and the “Osteocalcin (ng/ml)” value (wistar rats) was 387.7 ± 16.1^a ng/ml.
